For assay [1], the system named is rat. The assay is described as follows: In vivo rodent brain assay: intraventricular injection, eating behavior. As to conditions: intraventricular (third ventricle) injection of 5 μg MCH in 5 μl phosphate buffered saline, versus saline controls. An excerpt:
As discussed herein, rodents, e.g., rats, can be used to assay MCH activity in vivo. A Teflon catheter can be inserted into the third ventricle of a rat and cemented into place. MCH or its analogs, e.g., agonists or antagonists, can be introduced by way of the catheter at various concentrations, and their effect on eating behavior determined.
To further evaluate the importance of MCH as an appetite regulator, a Teflon catheter was inserted into the third ventricle of a rat and cemented into place, followed by intraventricular injection of 5 μg of MCH in 5 μl of phosphate buffered saline. Control animals received only phosphate buffered saline.

The target of assay [2] is T1, MC3-R (Mus musculus, UniProt P33033).
T1 construct: expressed in transfected cells; host or cells: HEK-293 (human kidney), stably transfected
The assay is described as follows: HEK-293 assay: ACTH binding to MC3-R after exposure to MCH. It counts as cell-based. As to conditions: HEK-293 cells stably transfected with MC3-R; exposure to 10^-7 M MCH for 20 minutes or overnight. As for the experimental part:
As discussed herein, heterologous human kidney, HEK-293 cells stably transfected with a plasmid carrying MC3-R can be used to assay MCH activity. It is not clear whether the MCH interaction with the MC3-R receptor is direct or indirect, but application of MCH results in an increase in binding of ACTH to the MC3-R receptor. […] Exposure of cells to 10^-7 M MCH for 20 minutes or overnight results in a 15-100% increase in ACTH binding.

“Also recorded” adds a separate entry of the source.

T1 sequence (P33033 whole entry): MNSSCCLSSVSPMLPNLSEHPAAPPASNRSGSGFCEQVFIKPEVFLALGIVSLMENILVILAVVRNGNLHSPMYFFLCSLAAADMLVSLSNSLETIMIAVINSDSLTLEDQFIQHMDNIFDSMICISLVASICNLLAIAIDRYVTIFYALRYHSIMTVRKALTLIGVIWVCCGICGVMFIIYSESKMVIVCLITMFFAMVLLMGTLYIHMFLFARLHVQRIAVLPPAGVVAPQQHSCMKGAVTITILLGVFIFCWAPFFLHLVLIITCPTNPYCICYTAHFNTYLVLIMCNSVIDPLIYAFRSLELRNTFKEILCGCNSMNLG

As to melanocyte concentrating hormone [MCH], the “Kcal consumed within one hour” value in assay [1] is “more than doubling; also recorded: doubling”. Further, in assay [2], the “increase in ACTH binding” value is 15-100%.

These data come from patent publication US20040242487A1, “Regulation of eating behavior” (Joslin Diabetes Center, Inc., a Massachusetts corporation, priority 1995, published 2004).
